≈ marks a conversion by molar mass, not a printed value. Read-outs that look alike come from different tables or passages of the source.
Key:
Kleb. pneumo. SK 1200 = assay: In vitro antibacterial activity (MIC); type: cell-based
Protocol: (§1) The compounds of this invention have antibacterial activity against Gram-positive and Gram-negative organisms. Minimum inhibitory concentrations (MIC's) ranged from 0.4 to >200 μg/ml in in vitro testing.

Strep. faecalis HH 34358 = assay: In vitro antibacterial activity (MIC); type: cell-based; settings: Enterococcus faecalis, HH34358; Strep. faecalis HH 34358, in vitro
Protocol: as §1

Kleb. pneumo. SK 4200 = assay: In vitro antibacterial activity (MIC); type: cell-based
Protocol: as §1

S.aureus Villaluz = assay: In vitro antibacterial activity (MIC); type: cell-based; settings: Staphylococcus aureus
Protocol: as §1

E. coli HH 33779 = assay: In vitro antibacterial activity (MIC); type: cell-based; settings: Escherichia coli, HH33779
Protocol: as §1

S.aureus HH 127 = assay: In vitro antibacterial activity (MIC); type: cell-based; settings: Staphylococcus aureus, HH127
Protocol: as §1

S.aureus SK 23390 = assay: In vitro antibacterial activity (MIC); type: cell-based; settings: Staphylococcus aureus, SK23390
Protocol: as §1

[1] = test system: Entero. aerog. ATCC 13048; assay: In vitro antibacterial activity (MIC); type: cell-based
Protocol: as §1

E.coli SK 12140 = assay: In vitro antibacterial activity (MIC); type: cell-based; settings: Escherichia coli, SK12140
Protocol: as §1

Shig. paradys HH 112 = assay: In vitro antibacterial activity (MIC); type: cell-based; settings: Shig. paradys HH 112, in vitro; read-out: MIC
Protocol: as §1

E.coli 12140 = assay: In vivo activity (ED50) against E.coli 12140
Proteus morgani 179 = assay: In vitro antibacterial activity (MIC); type: cell-based; settings: Proteus morgani 179, in vitro
Protocol: as §1

Klebs.pneumo. 4200 = assay: In vivo activity (ED50) against Klebs.pneumo. 4200
[2] = Kleb. pneumo. SK 1200, in vitro, read-out: MIC
[3] = Kleb. pneumo. SK 4200, in vitro, read-out: MIC
[4] = E. coli HH 33779, in vitro, read-out: MIC
[5] = S.aureus HH 127, in vitro, read-out: MIC
[6] = S.aureus SK 23390, in vitro, read-out: MIC
[7] = Entero. aerog. ATCC 13048, in vitro, read-out: MIC
[8] = E.coli SK 12140, in vitro, read-out: MIC
[9] = Escherichia coli, 12140, po, E.coli 12140, p.o.
[10] = Escherichia coli, 12140, sc, E.coli 12140, s.c.
[11] = po, Klebs.pneumo. 4200, p.o., read-out: ED50
[12] = sc, Klebs.pneumo. 4200, s.c., read-out: ED50

SMILES	MIC (Kleb. pneumo. SK 1200; [2])	MIC (Strep. faecalis HH 34358)	MIC (Kleb. pneumo. SK 4200; [3])	MIC (S.aureus Villaluz)	MIC (E. coli HH 33779; [4])	MIC (S.aureus HH 127; [5])	MIC (S.aureus SK 23390; [6])	MIC [1, 7]	MIC (E.coli SK 12140; [8])	ED50 (E.coli 12140; [9])	ED50 (E.coli 12140; [10])	MIC (Proteus morgani 179; read-out: MIC)	ED50 (Klebs.pneumo. 4200; [11])	ED50 (Klebs.pneumo. 4200; [12])	further results
CC1=C(C(=O)O)N2C(=O)C(NC(=O)[C@H](N)c3ccc(OCC(N)=O)cc3)C2SC1 (stereo partly drawn) [Compound No. 00036, 7-[D-α-Amino-α-(4'-carbamylmethoxyphenyl)acetamido]-3-desacetoxycephalosporanic acid]	25 µg/mL (≈ 59.5 µM)	50 µg/mL (≈ 119 µM)	25 µg/mL (≈ 59.5 µM)	200 µg/mL (≈ 476 µM)	50 µg/mL (≈ 119 µM)	3.1 µg/mL (≈ 7.37 µM)	3.1 µg/mL (≈ 7.37 µM)	100 µg/mL (≈ 238 µM)	25 µg/mL (≈ 59.5 µM)						MIC (Shig. paradys HH 112): 12.5 µg/mL (≈ 29.7 µM)
Cc1nnc(SCC2=C(C(=O)O)N3C(=O)C(NC(=O)[C@H](N)c4ccc(NCC(=O)O)cc4)C3SC2)s1 (stereo partly drawn) [Compound No. 48536, 7-[D-α-Amino-α-(4'-carboxymethylaminophenyl)acetamido]-3-(5-methyl-1,3,4-thiadiazol-2-ylthiomethyl)-3-cephem-4-carboxylic acid]	3.1 µg/mL (≈ 5.63 µM)	100 µg/mL (≈ 182 µM)	1.6 µg/mL (≈ 2.91 µM)	100 µg/mL (≈ 182 µM)	6.3 µg/mL (≈ 11.4 µM)	12.5 µg/mL (≈ 22.7 µM)	12.5 µg/mL (≈ 22.7 µM)	12.5 µg/mL (≈ 22.7 µM)	3.1 µg/mL (≈ 5.63 µM)	6.4 mg/kg	2 mg/kg	2.5 µg/mL (≈ 4.54 µM)	12.5 mg/kg	7.8 mg/kg	
Cn1nnnc1SCC1=C(C(=O)O)N2C(=O)C(NC(=O)[C@H](N)c3ccc(OCC(N)=O)cc3)C2SC1 (stereo partly drawn) [Compound No. 32626, 7-[D-α-Amino-α-(4'-carbamylmethoxyphenyl)acetamido]-3-(1-methyl-1,2,3,4-tetrazol-5-ylthiomethyl)-3-cephem-4-carboxylic acid]		200 µg/mL (≈ 374 µM)	6.3 µg/mL (≈ 11.8 µM)	50 µg/mL (≈ 93.5 µM)	25 µg/mL (≈ 46.8 µM)		6.3 µg/mL (≈ 11.8 µM)			> 50 mg/kg	8.7 mg/kg	100 µg/mL (≈ 187 µM)	> 50 mg/kg	15.5 mg/kg	MIC (Kleb. pneumo. SK 1200): 12.5 µg/mL (≈ 23.4 µM); MIC (S.aureus HH 127): 12.5 µg/mL (≈ 23.4 µM); MIC [1]: 12.5 µg/mL (≈ 23.4 µM); MIC (E.coli SK 12140): 12.5 µg/mL (≈ 23.4 µM)
Cc1nnc(SCC2=C(C(=O)O)N3C(=O)C(NC(=O)[C@H](N)c4ccc(NCC(N)=O)cc4)C3SC2)s1 (stereo partly drawn) [Compound No. 72546, 7-[D-α-Amino-α-(4'-carbamylmethylaminophenyl)acetamido]-3-(5-methyl-1,3,4-thiadiazol-2-ylthiomethyl)-3-cephem-4-carboxylic acid]	25 µg/mL (≈ 45.5 µM)	50 µg/mL (≈ 91 µM)		50 µg/mL (≈ 91 µM)	50 µg/mL (≈ 91 µM)			50 µg/mL (≈ 91 µM)	25 µg/mL (≈ 45.5 µM)			> 200 µg/mL			MIC (Kleb. pneumo. SK 4200): 12.5 µg/mL (≈ 22.7 µM); MIC (S.aureus HH 127): 12.5 µg/mL (≈ 22.7 µM); MIC (S.aureus SK 23390): 12.5 µg/mL (≈ 22.7 µM)
Cc1nnc(SCC2=C(C(=O)O)N3C(=O)C(NC(=O)[C@H](N)c4ccc(OCC(=O)O)cc4)C3SC2)s1 (stereo partly drawn) [Compound No. 59216, 7-[D-α-Amino-α-(4'-carboxymethoxyphenyl)acetamido]-3-(5-methyl-1,3,4-thiadiazol-2-ylthiomethyl)-3-cephem-4-carboxylic acid]	6.3 µg/mL (≈ 11.4 µM)	100 µg/mL (≈ 181 µM)	3.1 µg/mL (≈ 5.62 µM)	100 µg/mL (≈ 181 µM)	12.5 µg/mL (≈ 22.7 µM)	6.3 µg/mL (≈ 11.4 µM)	25 µg/mL (≈ 45.3 µM)	12.5 µg/mL (≈ 22.7 µM)	6.3 µg/mL (≈ 11.4 µM)	25 mg/kg	9.5 mg/kg	200 µg/mL (≈ 363 µM)	21.5 mg/kg	4.8 mg/kg	
N[C@@H](C(=O)NC1C(=O)N2C(C(=O)O)=C(CSc3c[nH]nn3)CSC12)c1ccc(OCC(=O)O)cc1 (stereo partly drawn) [Compound No. 03326, 7-[D-α-Amino-α-(4'-carboxymethoxyphenyl)acetamido]-3-(1,2,3-triazol-4-ylthiomethyl)-3-cephem-4-carboxylic acid]	3.1 µg/mL (≈ 5.96 µM)	200 µg/mL (≈ 384 µM)	6.3 µg/mL (≈ 12.1 µM)	200 µg/mL (≈ 384 µM)	25 µg/mL (≈ 48 µM)	12.5 µg/mL (≈ 24 µM)	100 µg/mL (≈ 192 µM)	25 µg/mL (≈ 48 µM)	6.3 µg/mL (≈ 12.1 µM)	25 mg/kg	8.4 mg/kg	200 µg/mL (≈ 384 µM)	17.7 mg/kg	4.6 mg/kg	
Cc1nnc(SCC2=C(C(=O)O)N3C(=O)C(NC(=O)[C@H](N)c4ccc(SCC(=O)O)cc4)C3SC2)s1 (stereo partly drawn) [Compound No. 03616, 7-[D-α-Amino-α-(4'-carboxymethylthiophenyl)acetamido]-3-(5-methyl-1,3,4-thiadiazol-2-ylthiomethyl)-3-cephem-4-carboxylic acid]	3.1 µg/mL (≈ 5.46 µM)	100 µg/mL (≈ 176 µM)	1.6 µg/mL (≈ 2.82 µM)	25 µg/mL (≈ 44 µM)	12.5 µg/mL (≈ 22 µM)	6.3 µg/mL (≈ 11.1 µM)	6.3 µg/mL (≈ 11.1 µM)	25 µg/mL (≈ 44 µM)	6.3 µg/mL (≈ 11.1 µM)	14.5 mg/kg	6.2 mg/kg	200 µg/mL (≈ 352 µM)	16 mg/kg	11.5 mg/kg	
CC1=C(C(=O)O)N2C(=O)C(NC(=O)C(N)c3ccc(OCC(=O)O)cc3)C2SC1 (racemic) [*08016, 7-[DL-α-amino-α-(4'-carboxymethoxyphenyl)acetamido]-3-desacetoxycephalosporanic acid]	25 µg/mL (≈ 59.3 µM)	> 200 µg/mL		> 200 µg/mL	50 µg/mL (≈ 119 µM)	50 µg/mL (≈ 119 µM)	50 µg/mL (≈ 119 µM)	100 µg/mL (≈ 237 µM)	50 µg/mL (≈ 119 µM)						MIC (Shig. paradys HH 112): 50 µg/mL (≈ 119 µM)
Cc1nnc(SCC2=C(C(=O)O)N3C(=O)C(NC(=O)[C@H](N)c4ccc(SCC(N)=O)cc4)C3SC2)s1 (stereo partly drawn) [Compound No. 86526, 7-[D-α-Amino-α-(4'-carbamylmethylthiophenyl)acetamido]-3-(5-methyl-1,3,4-thiadiazol-2-ylthiomethyl)-3-cephem-4-carboxylic acid]	6.3 µg/mL (≈ 11.1 µM)	50 µg/mL (≈ 88.2 µM)	12.5 µg/mL (≈ 22.1 µM)	25 µg/mL (≈ 44.1 µM)	25 µg/mL (≈ 44.1 µM)	6.3 µg/mL (≈ 11.1 µM)	3.1 µg/mL (≈ 5.47 µM)	100 µg/mL (≈ 176 µM)	25 µg/mL (≈ 44.1 µM)	42 mg/kg	18 mg/kg		10 mg/kg	7.2 mg/kg	
Cc1nnc(SCC2=C(C(=O)O)N3C(=O)C(NC(=O)[C@H](N)c4ccc(OCC(N)=O)cc4)C3SC2)s1 (stereo partly drawn) [Compound No. 71816, 7-[D-α-Amino-α-(4'-carbamylmethoxyphenyl)acetamido]-3-(5-methyl-1,3,4-thiadiazol-2-ylthiomethyl)-3-cephem-4-carboxylic acid]	6.3 µg/mL (≈ 11.4 µM)	25 µg/mL (≈ 45.4 µM)	3.1 µg/mL (≈ 5.63 µM)	25 µg/mL (≈ 45.4 µM)					6.3 µg/mL (≈ 11.4 µM)	12.5 mg/kg	4.5 mg/kg	100 µg/mL (≈ 182 µM)	6.2 mg/kg	7.5 mg/kg	MIC (Proteus morgani 179): 200 µg/mL (≈ 363 µM); MIC (E. coli HH 33779): 12.5 µg/mL (≈ 22.7 µM)
Cn1nnnc1SCC1=C(C(=O)O)N2C(=O)C(NC(=O)[C@H](N)c3ccc(SCC(=O)O)cc3)C2SC1 (stereo partly drawn) [Compound No. 70326, 7-[D-α-Amino-α-(4'-carboxymethylthiophenyl)acetamido]-3-(1-methyl-1,2,3,4-tetrazol-5-ylthiomethyl)-3-cephem-4-carboxylic acid]										11 mg/kg	2.2 mg/kg	6.3 µg/mL (≈ 11.4 µM)	4 mg/kg	1.7 mg/kg	ED50 (Klebs.pneumo. 4200; Klebs.pneumo. 4200, p.o.): 3 mg/kg; ED50 (Klebs.pneumo. 4200; Klebs.pneumo. 4200, s.c.): < 3 mg/kg
CC1=C(C(=O)O)N2C(=O)C(NC(=O)[C@H](N)c3ccc(SCC(=O)O)cc3)C2SC1 (stereo partly drawn) [compound 99316, 7-[D-α-Amino-α-(4'-carboxymethylthiophenyl)acetamido]-3-desacetoxycephalosporanic acid]	6.3 µg/mL (≈ 14.4 µM)	> 200 µg/mL		100 µg/mL (≈ 229 µM)	50 µg/mL (≈ 114 µM)			50 µg/mL (≈ 114 µM)		42 mg/kg	25 mg/kg	> 200 µg/mL	15.5 mg/kg		MIC (Kleb. pneumo. SK 4200): 12.5 µg/mL (≈ 28.6 µM); MIC (S.aureus HH 127): 12.5 µg/mL (≈ 28.6 µM); MIC (S.aureus SK 23390): 12.5 µg/mL (≈ 28.6 µM); MIC (E.coli SK 12140): 12.5 µg/mL (≈ 28.6 µM)

Reference: patent US4022895A, “Substituted phenylglycylcephalosporins” (SmithKline Corporation, priority 1975, dated 1977)
